According to patent publication US20220323406A1, “METHODS AND COMPOSITIONS FOR DIFFERENTIATING STEM CELLS” (Massachusetts Institute of Technology, priority 2019, published 2022):

What was measured:
[1] = tested on: ENR+CD organoids (ISC to Paneth cell differentiation); assay: Primary screen: basal (non-stimulated) lysozyme secretion LYZ.NS, 2.5-D 384-well ENR+CD organoid differentiation; assay type: cell-based, mouse
Excerpt: (§1) High-throughput screening.

ENR+CD organoids = assay: Primary screen: ATP (CellTiter-Glo 3D, CTG) cell number/viability, 2.5-D 384-well ENR+CD organoids;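 also: compounds given at plating and again on day 3 over a 6-day differentiation from ENR+CV stem-cell-enriched precursors, ATP measured on day 6, plate median as control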
[2] = tested on: ENR+CD organoids (ISC to Paneth cell differentiation); assay: Primary screen: CCh-stimulated lysozyme secretion LYZ.S, 2.5-D 384-well ENR+CD organoid differentiation; assay type: cell-based, mouse; details: primary screen
Excerpt: as §1

[3] = primary screen, standard z score, dose 0.08 uM
[4] = primary screen, standard z score, dose 0.40 uM
[5] = primary screen, standard z score, dose 2.00 uM
[6] = primary screen, standard z score, dose 10.00 uM
[7] = primary screen, dose 0.08 uM, FC relative to plate median
[8] = primary screen, dose 0.08 uM, standard z score
[9] = primary screen, dose 0.40 uM, FC relative to plate median
[10] = primary screen, dose 0.40 uM, standard z score
[11] = primary screen, dose 2.00 uM, FC relative to plate median
[12] = primary screen, dose 2.00 uM, standard z score
[13] = primary screen, dose 10.00 uM, FC relative to plate median
[14] = primary screen, dose 10.00 uM, standard z score
[15] = primary screen; dose 0.08 uM; FC vs plate median
[16] = primary screen; dose 0.40 uM; FC vs plate median
[17] = primary screen; dose 2.00 uM; FC vs plate median
[18] = primary screen; dose 10.00 uM; FC vs plate median
[19] = primary screen, 1st dose row of the treatment (0.08 uM by row order; dose not reprinted)
[20] = primary screen, 2nd dose row of the treatment (0.40 uM by row order; dose not reprinted)
[21] = primary screen, 3rd dose row of the treatment (2.00 uM by row order; dose not reprinted)
[22] = primary screen, 4th dose row of the treatment (10.00 uM by row order; dose not reprinted)
[23] = 1st dose row of the treatment (0.08 uM by row order; dose not reprinted)
[24] = 2nd dose row of the treatment (0.40 uM by row order; dose not reprinted)
[25] = 3rd dose row of the treatment (2.00 uM by row order; dose not reprinted)
[26] = 4th dose row of the treatment (10.00 uM by row order; dose not reprinted)

| Molecule | Dose.FC.LYZ.NS ([1]; primary screen, dose 0.08 uM) [log2 fold change] | Z.LYZ.NS (standard z score) ([1]; primary screen, dose 0.08 uM) | Dose.FC.LYZ.NS ([1]; primary screen, dose 0.40 uM) [log2 fold change] | Z.LYZ.NS (standard z score) ([1]; primary screen, dose 0.40 uM) | Dose.FC.LYZ.NS ([1]; primary screen, dose 2.00 uM) [log2 fold change] | Z.LYZ.NS (standard z score) ([1]; primary screen, dose 2.00 uM) | Dose.FC.LYZ.NS ([1]; primary screen, dose 10.00 uM) [log2 fold change] | Z.LYZ.NS (standard z score) ([1]; primary screen, dose 10.00 uM) | Dose.FC.CTG (ENR+CD organoids; primary screen, dose 0.08 uM) [log2 fold change] | Dose.FC.CTG (ENR+CD organoids; primary screen, dose 0.40 uM) [log2 fold change] | Dose.FC.CTG (ENR+CD organoids; primary screen, dose 2.00 uM) [log2 fold change] | Dose.FC.CTG (ENR+CD organoids; primary screen, dose 10.00 uM) [log2 fold change] | Dose.FC.LYZ.S ([2]; dose 0.08 uM) [log2 fold change] | Dose.FC.LYZ.S ([2]; dose 0.40 uM) [log2 fold change] | Dose.FC.LYZ.S ([2]; dose 2.00 uM) [log2 fold change] | Dose.FC.LYZ.S ([2]; dose 10.00 uM) [log2 fold change] | other results |
| --- | --- | --- | --- | --- | --- | --- | --- | --- | --- | --- | --- | --- | --- | --- | --- | --- | --- |
| CCOC(=O)C1=C(COCCN)NC(C)=C(C(=O)OC)C1c1ccccc1Cl (stereo not drawn) [Amlodipine] | 0.026 | 0.228 | 0.024 | 0.210 | −0.065 | −0.568 | −0.135 | −1.172 | −0.351 | −0.363 | −0.372 | −0.421 | −0.042 | −0.015 | −0.122 | −0.155 | – |
| COc1ccccc1OCCNCC(O)COc1cccc2[nH]c3ccccc3c12 (stereo not drawn) [Carvedilol] | 0.002 | – | −0.020 | – | 0.099 | – | −0.053 | – | 0.057 | −0.014 | −0.151 | −0.242 | −0.009 | −0.079 | −0.087 | 0.019 | Z.LYZ.NS [1, 3]: 0.021; Z.LYZ.NS [1, 4]: −0.175; Z.LYZ.NS [1, 5]: 0.866; Z.LYZ.NS [1, 6]: −0.464 |
| SNS-314 Mesylate | – | – | – | – | – | – | – | – | – | – | – | – | – | – | – | – | Dose.FC.LYZ.NS [1, 7]: −0.071 log2 fold change; Z.LYZ.NS [1, 8]: −0.620; Dose.FC.LYZ.NS [1, 9]: −0.059 log2 fold change; Z.LYZ.NS [1, 10]: −0.515; Dose.FC.LYZ.NS [1, 11]: −0.128 log2 fold change; Z.LYZ.NS [1, 12]: −1.111; Dose.FC.LYZ.NS [1, 13]: −0.127 log2 fold change; Z.LYZ.NS [1, 14]: −1.109; Dose.FC.CTG (ENR+CD organoids; [7]): −0.666 log2 fold change; Z.CTG (ENR+CD organoids; [8]): −1.591; Dose.FC.CTG (ENR+CD organoids; [9]): −0.777 log2 fold change; Z.CTG (ENR+CD organoids; [10]): −1.857; Dose.FC.CTG (ENR+CD organoids; [11]): −0.478 log2 fold change; Z.CTG (ENR+CD organoids; [12]): −1.142; Dose.FC.CTG (ENR+CD organoids; [13]): −0.620 log2 fold change; Z.CTG (ENR+CD organoids; [14]): −1.480; Dose.FC.LYZ.S ([2]; dose 0.08 uM, FC relative to plate median): −0.115 log2 fold change; Dose.FC.LYZ.S ([2]; dose 0.40 uM, FC relative to plate median): −0.103 log2 fold change; Dose.FC.LYZ.S ([2]; dose 2.00 uM, FC relative to plate median): −0.133 log2 fold change; Dose.FC.LYZ.S ([2]; dose 10.00 uM, FC relative to plate median): −0.198 log2 fold change |
| Cc1cc(OCc2nnc(SC3CCCC3)n2-c2cccnc2)ccc1-c1ccc(S(C)(=O)=O)cc1 [NMS-873] | – | – | – | – | – | – | – | – | – | – | – | – | – | – | – | – | Z.LYZ.NS [1, 8]: 0.853; Z.LYZ.NS [1, 10]: −1.537; Z.LYZ.NS [1, 12]: −2.352; Z.LYZ.NS [1, 14]: −2.368; Dose.FC.LYZ.NS [1, 15]: 0.098 log2 fold change; Dose.FC.LYZ.NS [1, 16]: −0.177 log2 fold change; Dose.FC.LYZ.NS [1, 17]: −0.270 log2 fold change; Dose.FC.LYZ.NS [1, 18]: −0.272 log2 fold change; Dose.FC.CTG (ENR+CD organoids; [15]): 0.174 log2 fold change; Dose.FC.CTG (ENR+CD organoids; [16]): −0.051 log2 fold change; Dose.FC.CTG (ENR+CD organoids; [17]): −0.910 log2 fold change; Dose.FC.CTG (ENR+CD organoids; [18]): −1.542 log2 fold change; Dose.FC.LYZ.S ([2]; dose 0.08 uM, FC vs plate median): 0.069 log2 fold change; Dose.FC.LYZ.S ([2]; dose 0.40 uM, FC vs plate median): −0.228 log2 fold change; Dose.FC.LYZ.S ([2]; dose 2.00 uM, FC vs plate median): −0.343 log2 fold change; Dose.FC.LYZ.S ([2]; dose 10.00 uM, FC vs plate median): −0.375 log2 fold change |
| CC(C)CCN1c2nc(Nc3cc(F)c(O)c(F)c3)ncc2N(C)C(=O)C1C (stereo not drawn) [BI-D1870] | 0.141 | 1.225 | 0.126 | 1.099 | −0.066 | −0.574 | −0.285 | −2.483 | 0.186 | 0.029 | −0.012 | −0.700 | 0.162 | 0.158 | 0.008 | −0.378 | Z.CTG (standard z score) (ENR+CD organoids; primary screen, dose 0.08 uM): 0.444; Z.CTG (standard z score) (ENR+CD organoids; primary screen, dose 0.40 uM): 0.069; Z.CTG (standard z score) (ENR+CD organoids; primary screen, dose 2.00 uM): −0.028; Z.CTG (standard z score) (ENR+CD organoids; primary screen, dose 10.00 uM): −1.673 |
| CCC(CC)CC1(C(=O)Nc2ccccc2SC(=O)C(C)C)CCCCC1 [Dalcetrapib (JTT-705, RO4607381)] | 0.055 | – | −0.037 | – | −0.034 | – | −0.074 | – | 0.112 | −0.006 | 0.079 | 0.136 | 0.049 | 0.104 | 0.098 | −0.113 | Z.LYZ.NS [1, 3]: 0.475; Z.LYZ.NS [1, 4]: −0.324; Z.LYZ.NS [1, 5]: −0.296; Z.LYZ.NS [1, 6]: −0.643; Z.CTG (ENR+CD organoids; [3]): 0.268; Z.CTG (ENR+CD organoids; [4]): −0.014; Z.CTG (ENR+CD organoids; [5]): 0.188; Z.CTG (ENR+CD organoids; [6]): 0.324 |
| C[C@H](Oc1cc(-c2cnn(C3CCNCC3)c2)cnc1N)c1c(Cl)ccc(F)c1Cl [(S)-crizotinib] | 0.193 | 1.679 | 0.009 | 0.081 | −0.034 | −0.294 | −0.068 | −0.588 | 0.241 | 0.054 | 0.111 | 0.019 | 0.125 | 0.016 | −0.059 | −0.111 | SSMD.LYZ.NS_Rep (strictly standardized mean difference) [1, 19]: 0.838; SSMD.LYZ.NS_Rep (strictly standardized mean difference) [1, 20]: 0.094; SSMD.LYZ.NS_Rep (strictly standardized mean difference) [1, 21]: −0.229; SSMD.LYZ.NS_Rep (strictly standardized mean difference) [1, 22]: −0.438; SSMD.CTG.Rep (strictly standardized mean difference) (ENR+CD organoids; [19]): 0.742; SSMD.CTG.Rep (strictly standardized mean difference) (ENR+CD organoids; [20]): 0.190; SSMD.CTG.Rep (strictly standardized mean difference) (ENR+CD organoids; [21]): 0.285; SSMD.CTG.Rep (strictly standardized mean difference) (ENR+CD organoids; [22]): 0.034; Z.CTG (standard z score) (ENR+CD organoids; primary screen, dose 0.08 uM): 0.575; Z.CTG (standard z score) (ENR+CD organoids; primary screen, dose 0.40 uM): 0.130; Z.CTG (standard z score) (ENR+CD organoids; primary screen, dose 2.00 uM): 0.266; Z.CTG (standard z score) (ENR+CD organoids; primary screen, dose 10.00 uM): 0.046; SSMD.LYZ.S_Rep (strictly standardized mean difference) [2, 23]: 0.881; Z.LYZ.S (standard z score) [2, 23]: 0.808; SSMD.LYZ.S_Rep (strictly standardized mean difference) [2, 24]: 0.084; Z.LYZ.S (standard z score) [2, 24]: 0.103; SSMD.LYZ.S_Rep (strictly standardized mean difference) [2, 25]: −0.343; Z.LYZ.S (standard z score) [2, 25]: −0.383; SSMD.LYZ.S_Rep (strictly standardized mean difference) [2, 26]: −0.491; Z.LYZ.S (standard z score) [2, 26]: −0.720 |
